Experimental data: patent US7932283B2, “Fungicide N-cyclopropyl-sulfonylamide derivatives” (Bayer Cropscience AG, priority 2006, dated 2011)

Experiment: logP by HPLC on reversed-phase column (C 18), EEC Directive 79/B31 Annex V.A8, methods A and B
Format: physicochemical
Conditions: reversed-phase HPLC column (C 18), linear gradient 10% to 90% acetonitrile
Method: Calibration was carried out using unbranched alkan-2-ones (having 3 to 16 carbon atoms) with known logP values (determination of the logP values by the retention times using linear interpolation between two successive alkanones).

[1] = LogP method A: HPLC reversed-phase C 18, 43° C., 0.1% aqueous phosphoric acid / acetonitrile
[2] = HPLC reversed-phase C 18, method A: 43° C., 0.1% aqueous phosphoric acid, acetonitrile
[3] = HPLC reversed-phase C 18, method B: 40° C., 0.1% aqueous formic acid and acetonitrile
[4] = LogP method B: HPLC reversed-phase C 18, 40° C., 0.1% aqueous formic acid / acetonitrile

Structure (SMILES) | chromatographic logP [1] | chromatographic logP [3] | also measured
CCOC(=O)c1[nH]c(C)c(C(=O)N(C2CC2)S(=O)(=O)c2ccc(O)cc2O)c1C [Compound 32] |  |  | chromatographic logP [2]: 3.63
CCCCc1ccc(S(=O)(=O)N(C(=O)c2c(CC)nn(C)c2F)C2CC2)cc1 [Compound 383] |  | 4.2 | 
Cc1nc(C(=O)N(C2CC2)S(=O)(=O)c2ccc(C(C)(C)C)cc2)cs1 [Compound 72] |  |  | chromatographic logP [2]: 3.59
COc1nn(C)cc1C(=O)N(C1CC1)S(=O)(=O)c1cnc(O)c(Br)c1 [Compound 449] |  |  | chromatographic logP [4]: 2
CCc1nn(C)c(F)c1C(=O)N(C1CC1)S(=O)(=O)c1ccc(Oc2ccc(O)cc2)cc1 [Compound 391] |  | 4.2 | 
CCOC(=O)c1[nH]c(C)c(C(=O)N(C2CC2)S(=O)(=O)c2ccc(O)c(C(F)(F)F)c2)c1C [Compound 31] |  |  | chromatographic logP [2]: 4.08
CC(F)c1nn(C)cc1C(=O)N(C1CC1)S(=O)(=O)c1cccc(O)c1O (stereo not drawn) [Compound 119] |  | 2.8 | 
Cc1cc(C(=O)N(C2CC2)S(=O)(=O)c2cccc(O)c2O)nn1C [Compound 74] |  | 2.7 | 
COc1nn(C)cc1C(=O)N(C1CC1)S(=O)(=O)c1ccc(Oc2ccccc2O)cc1Br [Compound 465] |  |  | chromatographic logP [4]: 3.5
Cc1nn(C)c(F)c1C(=O)N(C1CC1)S(=O)(=O)c1cccc([N+](=O)[O-])c1 [Compound 195] |  |  | chromatographic logP [2]: 2.48
CCc1nn(C)c(F)c1C(=O)N(C1CC1)S(=O)(=O)c1ccc(Oc2ccc(Br)cc2)cc1 [Compound 390] |  | 4.4 | 
Cc1nc(C(=O)N(C2CC2)S(=O)(=O)c2ccc(O)c(O)c2)cs1 [Compound 70] |  |  | chromatographic logP [2]: 3.46
Cc1nc(C(=O)N(C2CC2)S(=O)(=O)c2ccc(O)c(C(F)(F)F)c2)cs1 [Compound 69] |  |  | chromatographic logP [2]: 3.63
Cn1cc(C(=O)N(C2CC2)S(=O)(=O)c2ccc(Oc3ccccc3)cc2)c(C(F)(F)F)c1 [Compound 38] |  | 4 | 
Cc1nn(C)c(C#N)c1C(=O)N(C1CC1)S(=O)(=O)c1ccc(O)c(O)c1O [Compound 228] |  | 3.9 | 
Cc1occc1C(=O)N(C1CC1)S(=O)(=O)c1ccccc1O [Compound 4] |  |  | chromatographic logP [2]: 2.77
COc1nn(C)cc1C(=O)N(C1CC1)S(=O)(=O)c1ccc(Oc2ccc(Cl)cc2)cc1Br [Compound 469] |  |  | chromatographic logP [4]: 3.8
COc1cscc1C(=O)N(C1CC1)S(=O)(=O)c1ccc(Oc2ccc(Br)cc2)cc1 [Compound 28] |  | 4.4 | 
COc1nn(C)cc1C(=O)N(C1CC1)S(=O)(=O)c1ccc(Oc2ccc(Br)c(O)c2)cc1Br [Compound 480] |  |  | chromatographic logP [4]: 4.2
Cn1nc(C(F)F)c(C(=O)N(C2CC2)S(=O)(=O)c2ccc(Oc3ccccc3)cc2)c1F [Compound 107] |  | 3.8 | 

Further lines, with some results ahead:

chromatographic logP [1] | chromatographic logP [3] | Structure (SMILES) | also measured
3.1 |  | O=C(c1cccnc1)N(C1CC1)S(=O)(=O)c1ccc(O)c(C(F)(F)F)c1 [Compound 638] | 
2.93 |  | Cc1cc(C(=O)N(C2CC2)S(=O)(=O)c2ccccc2O)nc(Cl)n1 [Compound 654] | 
4.16 |  | Cc1cc(C)c(C(=O)N(C2CC2)S(=O)(=O)c2ccc(O)c(O)c2O)c(Cl)n1 [Compound 651] | 
3.21 |  | Cc1nn(C)c(C)c1C(=O)N(C1CC1)S(=O)(=O)c1ccc(O)c(O)c1 [Compound 412] | 
2.74 |  | O=C(c1cccnc1)N(C1CC1)S(=O)(=O)c1ccc(C(F)(F)F)cc1 [Compound 637] | 
4.03 |  | Cc1c(C(=O)N(C2CC2)S(=O)(=O)c2ccc(O)cc2O)sc(=O)n1Cc1ccccc1 [Compound 627] | 
3.01 |  | CCc1c(C(=O)N(C2CC2)S(=O)(=O)c2ccc(C(C)(C)C)cc2)sc(=O)n1C1CC1 [Compound 632] | 
3.57 |  | Cc1cc(C)c(C(=O)N(C2CC2)S(=O)(=O)c2cccc(O)c2O)c(O)n1 [Compound 650] | 
4.03 |  | CC(C)c1c(C(=O)N(C2CC2)S(=O)(=O)c2ccc(C(F)(F)F)cc2)sc(=O)n1C1CC1 [Compound 618] | 
4.08 |  | Cc1c(C(=O)N(C2CC2)S(=O)(=O)c2ccc(C(F)(F)F)cc2)sc(=O)n1Cc1ccccc1 [Compound 614] | 
